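Results reflect a 48-hour exposure of cells in 96-well plates to compound at five concentrations. At the GI50, growth is halved.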 Calls of active or inactive are those of the source. Cut-off read from the data, not from the text of the source: active = GI50 up to about 1.1 µM and inactive = higher.
What was measured:
Assay in all cases: NCI anticancer screen, dose series, 48 h
ACHN = tested on: ACHN
MDA-MB-435 = tested on: MDA-MB-435
SF-295 = tested on: SF-295
OVCAR-3 = tested on: OVCAR-3
RPMI-8226 = tested on: RPMI-8226
NCI-H522 = tested on: NCI-H522
RXF 393 = tested on: RXF 393
M14 = tested on: M14
NCI-H460 = tested on: NCI-H460
LOX IMVI = tested on: LOX IMVI
MDA-MB-231 = tested on: MDA-MB-231
SK-OV-3 = tested on: SK-OV-3
CAKI-1 = tested on: CAKI-1
SF-268 = tested on: SF-268
UACC-62 = tested on: UACC-62
T47D = tested on: T47D
SNB-19 = tested on: SNB-19
786-0 = tested on: 786-0
SK-MEL-2 = tested on: SK-MEL-2
SK-MEL-28 = tested on: SK-MEL-28

Measured: GI50

O=c1[nH]c2ccccc2c2nc3ccccc3n12
inactive: ACHN 7.03 µM | MDA-MB-435 > 100 µM | SF-295 62.4 µM | OVCAR-3 54.5 µM | RPMI-8226 > 100 µM | NCI-H522 7.21 µM | RXF 393 28.7 µM | M14 > 100 µM | NCI-H460 2.54 µM | LOX IMVI > 100 µM | MDA-MB-231 16.9 µM | SK-OV-3 14 µM | CAKI-1 6.37 µM | SF-268 53.7 µM | UACC-62 6.64 µM | T47D > 100 µM | SNB-19 > 100 µM | 786-0 81.8 µM

CN(C)C(=N)/N=C(\N)Nc1cccc(Cl)c1
inactive: ACHN 55.5 µM | MDA-MB-435 > 100 µM | SF-295 84.1 µM | OVCAR-3 > 100 µM | RPMI-8226 > 100 µM | SK-MEL-2 > 100 µM | SK-MEL-28 > 100 µM | M14 58.2 µM | NCI-H460 91.6 µM | LOX IMVI 35.9 µM | MDA-MB-231 46.7 µM | SK-OV-3 > 100 µM | CAKI-1 48.2 µM | SF-268 35.4 µM | UACC-62 89.1 µM | T47D 24.8 µM | SNB-19 > 100 µM | 786-0 > 100 µM

CCOP(=O)(OCC)C(C(=O)OC)C(=O)C(=O)Nc1cccc(O)c1 (stereo not drawn)
inactive: ACHN > 100 µM | MDA-MB-435 > 100 µM | SF-295 > 100 µM | OVCAR-3 > 100 µM | NCI-H522 > 100 µM | SK-MEL-2 > 100 µM | SK-MEL-28 > 100 µM | RXF 393 > 100 µM | M14 > 100 µM | NCI-H460 > 100 µM | LOX IMVI > 100 µM | MDA-MB-231 > 100 µM | SK-OV-3 > 100 µM | CAKI-1 > 100 µM | SF-268 > 100 µM | UACC-62 > 100 µM | T47D > 100 µM | SNB-19 > 100 µM | 786-0 > 100 µM

OC(c1ccccc1)(c1cccnc1)C(O)(c1ccccc1)c1cccnc1 (stereo not drawn)
inactive: ACHN > 100 µM | MDA-MB-435 > 100 µM | SF-295 > 100 µM | RPMI-8226 > 100 µM | NCI-H522 6.97 µM | SK-MEL-2 > 100 µM | RXF 393 > 100 µM | M14 > 100 µM | NCI-H460 > 100 µM | MDA-MB-231 > 100 µM | SK-OV-3 > 100 µM | CAKI-1 > 100 µM | SF-268 > 100 µM | UACC-62 > 100 µM | T47D > 100 µM | SNB-19 > 100 µM | 786-0 > 100 µM

Nc1ncnc2oc(C3OC(COC(=O)c4ccccc4)C(OC(=O)c4ccccc4)C3OC(=O)c3ccccc3)nc12 (stereo not drawn)
inactive: ACHN > 100 µM | MDA-MB-435 > 100 µM | SF-295 > 100 µM | OVCAR-3 > 100 µM | RPMI-8226 > 100 µM | NCI-H522 > 100 µM | SK-MEL-28 > 100 µM | RXF 393 > 100 µM | M14 > 100 µM | NCI-H460 > 100 µM | LOX IMVI > 100 µM | MDA-MB-231 > 100 µM | SK-OV-3 > 100 µM | CAKI-1 > 100 µM | SF-268 > 100 µM | UACC-62 74.8 µM | T47D 21.1 µM | SNB-19 > 100 µM | 786-0 > 100 µM

CN1c2ccccc2S(=O)(=O)n2c(CCc3ccccc3)nnc21
inactive: ACHN > 100 µM | MDA-MB-435 > 100 µM | SF-295 56.2 µM | OVCAR-3 > 100 µM | NCI-H522 43.9 µM | SK-MEL-2 > 100 µM | SK-MEL-28 > 100 µM | RXF 393 > 100 µM | M14 > 100 µM | NCI-H460 98.6 µM | LOX IMVI > 100 µM | MDA-MB-231 > 100 µM | SK-OV-3 > 100 µM | CAKI-1 44.1 µM | SF-268 > 100 µM | UACC-62 > 100 µM | T47D > 100 µM | SNB-19 > 100 µM | 786-0 54.1 µM

COc1cc(C2SCC(=O)N2c2ccc(-c3ccc(-n4c(-c5ccccc5)nc5ccccc5c4=O)cc3)cc2)cc(OC)c1OC (stereo not drawn)
inactive: ACHN 16.6 µM | MDA-MB-435 21.8 µM | OVCAR-3 18.5 µM | RPMI-8226 > 100 µM | NCI-H522 13.4 µM | SK-MEL-2 22.2 µM | SK-MEL-28 21.9 µM | M14 20.5 µM | NCI-H460 27.5 µM | LOX IMVI 2.21 µM | MDA-MB-231 15.6 µM | SK-OV-3 57.3 µM | CAKI-1 19.1 µM | SF-268 63 µM | UACC-62 21.2 µM | T47D 24.8 µM | SNB-19 26.5 µM | 786-0 16.2 µM
